Measured values taken from PMC4526861, “Inhibition of protein kinase C by isojacareubin suppresses hepatocellular carcinoma metastasis and induces apoptosis in vitro and in vivo” (Scientific Reports, 2015).

Assays:
[1] = test system: PKC; experiment: PKC activity assay (PepTag non-radioactive, HepG2 lysates); type: biochemical, human; settings: 3 h
Experimental: The activity of PKC in HepG2 cells was assessed 3 h after the addition of compound 7 or ISJ by measuring the phosphorylation of a PKC-specific target peptide. Compared to the basal control (in the absence of any compound), PKC activity was inhibited by compound 7 and ISJ.
Figure 3 Effects of compound 7 and ISJ on PKC activity in HepG2 cells. The proteins from lysed HepG2 cells were prepared and measured for their ability to phosphorylate a PKC-specific peptide substrate (PLSRTLSVAAK) in a non-radioactive assay. (a) Lanes 1 and 2 show the negative (water only) and positive controls (with 20 ng purified PKC). Supernatants from HepG2 cells were subjected to the PKC activity assay in the absence (basal control, lane 3) or presence (lanes 4–7) of the compounds. Compound 7 (lanes 4 and 5) and ISJ (lanes 6 and 7) were added separately at 10 and 5 μM. (b) Quantification of (a); *P < 0.05 versus the basal control. Data are shown as the mean ± SD of three independent experiments.
The PKC activity assay was carried out as previously reported, according to the instructions of the PepTag non-radioactive PKC assay kit (Promega)[60]. The bands were photographed using the Syngene GBOX-iCHEMI-XR system, and the phosphorylated bands were cut out for quantification measurement at 570 nm.

[2] = test system: HepG2 cells; experiment: Matrigel invasion assay; type: cell-based, human; settings: 10 μM, 24 h
Experimental: Cell migration and invasion potencies were studied using wound healing and Matrigel invasion assays. The wound healing assay was performed by scratching the cell surface with a 10 μL pipette tip. Then, the cells were treated with compound 7 and ISJ (10 μM) and incubated for 24 h before being photographed under a microscope (DMI3000 B, Leica). Wound closure was evaluated using ImageJ software. Invasion through a Matrigel-coated filter was measured in transwell chambers (Corning Costa) as described previously, with minor modifications. Briefly, HepG2 Cells (2 × 10^5/well) were suspended in serum-free medium and added to the upper chamber of the Matrigel plate. FBS (10%) was used as the chemoattractant in the lower chamber. After incubation for 24 h, the non-invading cells were removed from the upper surface of the insert membrane with a cotton swab. The invading cells were fixed with methanol and stained with Giemsa (Sigma). Cells in five randomly selected fields were photographed, and the numbers of cells that crossed the membrane were counted.

[3] = test system: HepG2 cells; experiment: Apoptosis assay, Annexin V-FITC/PI flow cytometry; type: cell-based, human; settings: 48 h
Experimental: To further explore the potential mechanisms of the antiproliferative effects induced by compound 7 and ISJ, Annexin V-FITC/PI double staining was performed to quantify cellular apoptosis by flow cytometry. HepG2 cells were cultured for 48 h in the absence or presence of compound 7 or ISJ at different concentrations (5 or 15 μM).
HepG2 cells were seeded in six-well plates (5 × 10^5 cells/mL) for 24 h and then treated with various amounts of the compounds or 1% DMSO (as control). After 48 h, the cells floating in the medium were collected, and the adherent cells were detached with 0.05% trypsin, washed twice with cold PBS, and centrifuged at 1000 rpm for 5 min at 4 °C. Subsequently, HepG2 cells were gently resuspended in the binding buffer. Thereafter, the cells were stained using the Annexin V-FITC/PI apoptosis detection kit (BD Biosciences, San Jose, CA, USA). After incubation at room temperature for 15 min in the dark, the apoptotic cells were immediately analyzed by flow cytometry (FACS Calibur).

[4] = target: T1, PKCα (Homo sapiens, UniProt P17252); experiment: Cell-based pull-down assay, PKCα; type: binding; settings: HepG2 lysates
T1 construct: Endogenous cPKC (PKCα) and nPKC (PKCδ, PKCε and PKCμ) in HepG2 lysates were pulled down; endogenous in cells; host or cells: HepG2
Experimental: To identify whether ISJ and compound 7 target PKC in cells, we performed pull-down experiments using ISJ- and compound 7-coupled Sepharose beads with HepG2 cell lysates. Endogenous cPKC (PKCα) and nPKC (PKCδ, PKCε and PKCμ) in HepG2 lysates were pulled down by ISJ-coupled CNBr-activated Sepharose 4B beads (Fig. 5a).
The control beads were prepared by incubating the beads with DMSO. Proteins (500 μg) from lysed HepG2 cells were mixed with either the control beads, compound 7-coupled beads, or ISJ-coupled beads (100 μL) in reaction buffer [50 mM Tris (pH 7.5), 5 mM EDTA, 150 mM NaCl, 1 mM DTT, 0.01% NP-40, 2 μg/mL BSA, 1 mM PMSF, 1% protease inhibitor mixture]. After incubation with gentle rocking overnight at 4 °C, the beads were washed 5 times with washing buffer [50 mM Tris (pH 7.5), 5 mM EDTA, 150 mM NaCl, 1 mM DTT, 0.01% NP-40, 1 mM PMSF], and binding was visualized by western blotting.

Substance: Isojacareubin [ISJ]
- inhibition of PKC activity compared to the basal control ([1]; 5 μM): 52.3%
- inhibition of PKC activity compared to the basal control ([1]; 10 μM): 77.7%
- inhibition of invasiveness compared to control [2]: 76%
- number of apoptotic cells compared to the control group ([3]; 5 μM): did not alter
- percentage of apoptotic cells ([3]; 15 μM): increased significantly
- pull-down of endogenous PKCα by compound-coupled Sepharose 4B beads [4]: pulled down
